The target of assay [1] is phosphorylated BTK in Ramos cells (Homo sapiens (Human), UniProt Q06187). The experiment in a line: Determination of phosphorylated BTK in Ramos cells (BTK phospho-Y223 HTRF). The assay is classed as cell-based. The following applies: anti-human IgM + hydrogen peroxide stimulation. In outline:
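Ramos cells starved 2 h in 1% FBS, then treated 1 h with compound (0.00018–3.0 μM, 0.3% DMSO). They were then stimulated 10 min at 37° C. with anti-human IgM (10 μg/mL) plus H2O2 (3.3 mM). Lysates read by BTK phospho-Y223 HTRF (665/615 nm ratio); IC50 fitted from inhibition normalized to stimulated and unstimulated controls.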
For orientation: Time-resolved FRET reads energy transfer from a long-lived donor to a nearby acceptor.

The target in assay [2] is BTK recombinant protein (Homo sapiens (Human), UniProt Q06187). Kind of assay: Determination of biochemical BTK (Z'-LYTE kinase assay). In outline: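 Human BTK recombinant kinase (3.32 nM final) was preincubated with compound for 30 min at 4 °C. Reaction ran 1 h at room temperature with Tyr01 FRET peptide (2 μM) and ATP (32 μM); development protease then added. Coumarin 445 nm/fluorescein 520 nm emission ratio (400 nm excitation) gave inhibition across 8 concentrations, 3000–1.37 nM.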
BTK recombinant protein, sequence (Q06187 whole entry): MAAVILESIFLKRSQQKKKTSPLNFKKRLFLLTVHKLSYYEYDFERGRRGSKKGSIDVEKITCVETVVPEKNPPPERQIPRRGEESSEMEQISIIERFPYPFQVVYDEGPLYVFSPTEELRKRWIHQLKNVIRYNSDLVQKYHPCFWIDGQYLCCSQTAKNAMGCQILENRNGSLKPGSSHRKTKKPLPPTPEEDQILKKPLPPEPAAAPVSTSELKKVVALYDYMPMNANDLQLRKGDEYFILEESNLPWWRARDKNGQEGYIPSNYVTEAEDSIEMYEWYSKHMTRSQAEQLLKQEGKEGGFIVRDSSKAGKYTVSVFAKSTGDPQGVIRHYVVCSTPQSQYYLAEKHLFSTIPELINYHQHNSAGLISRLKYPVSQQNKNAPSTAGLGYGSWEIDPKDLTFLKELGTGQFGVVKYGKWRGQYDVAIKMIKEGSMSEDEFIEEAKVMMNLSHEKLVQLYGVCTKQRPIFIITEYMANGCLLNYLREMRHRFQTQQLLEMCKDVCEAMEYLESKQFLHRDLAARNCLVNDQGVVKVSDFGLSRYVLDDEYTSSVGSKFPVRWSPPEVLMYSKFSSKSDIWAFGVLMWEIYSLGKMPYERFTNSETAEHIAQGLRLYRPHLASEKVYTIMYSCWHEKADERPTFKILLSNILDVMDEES

pIC50: −log10 of the molar value.

phosphorylated BTK in Ramos cells, sequence (Q06187 whole entry): as above

As to `Cn1cc(Nc2cc(-c3ccnc(-n4ccn5c6c(cc5c4=O)CC(C)(C)C6)c3CO)nn(C)c2=O)nn1` [Compound 29], the pIC50 in assay [1] is 7.52; in assay [2], 8.10.
The corresponding values for `CCn1cc(Nc2cc(-c3ccnc(-n4ccn5c6c(cc5c4=O)CC(C)(C)C6)c3CO)cn(C)c2=O)cn1` [Compound 172] are 7.96 and 7.39.
As to `Cn1cc(-c2ccnc(-n3ccn4c5c(cc4c3=O)CC(C)(C)C5)c2CO)cc(Nc2ccc(N3CCN(C4COC4)CC3)nn2)c1=O` [Compound 222], the pIC50 in assay [1] and in assay [2] was 8.10 throughout.
In the case of `CC(C)n1cc(Nc2cc(-c3ccnc(-n4ccn5c6c(cc5c4=O)CC(C)(C)C6)c3CO)cn(C)c2=O)cn1` [Compound 173], the pIC50 in assay [1] was 7.55; in assay [2], 7.10.
For `CC1Cc2cc3c(=O)n(-c4nccc(-c5cc(Nc6cc7n(n6)CCOC7)c(=O)n(C)c5)c4CO)ccn3c2C1` (stereo not shown) [Compound 181], in that order: 7.42 and 7.92.
Take `COCCN1CCn2nc(Nc3cc(-c4ccnc(-n5ccn6c7c(cc6c5=O)CC(C)(C)C7)c4CO)cn(C)c3=O)cc2[C@@H]1C` [Compound 116]: the results for the pIC50 in assay [1] and in assay [2] were 7.96 and 8.00, respectively.
The corresponding values for `Cn1cc(-c2ccnc(-n3ccn4c5c(cc4c3=O)CC(C)(C)C5)c2CO)cc(Nc2cc3n(n2)CCOC3)c1=O` [Compound 162] are 8.22 and 9.00.
The corresponding values for `Cn1cc(-c2ccnc(-n3ccn4c5c(cc4c3=O)CC(C)(C)C5)c2CO)cc(Nc2cccnn2)c1=O` [Compound 84] are 7.96 and 8.05.
For `COc1ccc(Nc2cc(-c3ccnc(-n4ncn5c6c(cc5c4=O)CC(C)(C)C6)c3CO)cn(C)c2=O)nc1` [Compound 133], in that order: 7.89 and 7.48.
In the case of `CC(=O)N1CCn2nc(Nc3cc(-c4ccnc(-n5ccn6c7c(cc6c5=O)CC(C)(C)C7)c4CO)cn(C)c3=O)cc2C1` [Compound 68, 2-(5-((5-acetyl-4,5,6,7-tetrahydropyrazolo[1,5-a]pyrazin-2-yl)amino)-3′-(hydroxymethyl)-1-methyl-6-oxo-1,6-dihydro-[3,4′-bispyridin]-2′-yl)-7,7-dimethyl-7,8-dihydro-2H-cyclopenta[4,5]pyrrolo[1,2-a]pyrazin-1(6H)-one], the pIC50 in assay [1] was 8.70; in assay [2], 8.30.
For `CCn1cc(Nc2cc(-c3ccnc(-n4ncn5c6c(cc5c4=O)CC(C)(C)C6)c3CO)cn3ncnc23)nn1` [Compound 208], in that order: 8.40 and 8.40.
Turning to `COCc1cc(Nc2cc(-c3ccnc(-n4ccn5c6c(cc5c4=O)CC(C)(C)C6)c3CO)cn(C)c2=O)nn1C` [Compound 154], the negative logarithm of the IC50 (pIC50) in assay [1] was 7.89; in assay [2] it was 8.10.
The corresponding values for `COCCN1CCn2nc(Nc3cc(-c4ccnc(-n5ccn6c7c(c(F)c6c5=O)CCCC7)c4CO)cn(C)c3=O)cc2C1` [Compound 167] are 7.92 and 7.80.
The corresponding values for `COCCN1CCN(c2ccc(Nc3cc(-c4ccnc(-n5ccn6c7c(cc6c5=O)CC(C)(C)C7)c4CO)cn(C)c3=O)nc2)C(C)(C)C1` [Compound 226] are 7.96 and 7.77.
For `Cc1c(-c2ccnc(-n3ccn4c5c(cc4c3=O)CC(C)(C)C5)c2CO)cc(Nc2ccc(N3CCN(C4COC4)C[C@@H]3C)cn2)c(=O)n1C` [Compound 11], the pIC50 in assay [1] is 6.81; in assay [2] it was 6.97.
Take `CN(c1ccc(Nc2cc(-c3ccnc(-n4ncn5c6c(cc5c4=O)CC(C)(C)C6)c3CO)cn(C)c2=O)nc1)C1COC1` [Compound 106]: the pIC50 in assay [1] is 9.00; in assay [2] it was 7.92.
For `Cn1cc(-c2ccnc(-n3ncn4c5c(cc4c3=O)CC(C)(C)C5)c2CO)cc(Nc2cc3n(n2)CCN(C2CCC2)C3)c1=O` [Compound 170], in that order: 7.80 and 7.74.
For `[2H]C([2H])([2H])n1cc(-c2ccnc(-n3ccn4c5c(cc4c3=O)CC(C)(C)C5)c2CO)cc(Nc2ccc(N3CCN(C4COC4)C[C@@H]3C)cn2)c1=O` [Compound 97], in that order: 8.52 and 8.05.
For `C[C@H]1c2cc(Nc3cc(-c4ccnc(-n5ccn6c7c(cc6c5=O)CC(C)(C)C7)c4CO)cn(C)c3=O)nn2CCN1C1COC1` [Compound 136], in that order: 8.30 and 8.40.
With `CCn1cc(Nc2nc(-c3ccnc(-n4ccn5c6c(cc5c4=O)CC(C)(C)C6)c3CO)cn(C)c2=O)nn1` [Compound 3], the pIC50 in assay [1] was 6.47; in assay [2], 6.65.
The corresponding values for `C[C@@H]1CN(C2COC2)CCN1c1ccc(Nc2cc(-c3ccnc(-n4ccn5c6c(cc5c4=O)CC(C)(C)C6)c3CO)cn(C)c2=O)nc1` [Compound 80] are 8.70 and 8.30.
On to `C[C@@H]1[C@H](C)N(c2ccc(Nc3cc(-c4ccnc(-n5ccn6c7c(cc6c5=O)CC(C)(C)C7)c4CO)cn(C)c3=O)nc2)CCN1C1COC1` [Compound 234], for which the pIC50 in assay [1] was 8.00; in assay [2], 7.49.
For `C[C@@H](CNC1COC1)Nc1ccc(Nc2cc(-c3ccnc(-n4ccn5c6c(cc5c4=O)CC(C)(C)C6)c3CO)cn(C)c2=O)nc1` [Compound 127], in that order: 7.74 and 8.00.
The corresponding values for `C[C@H]1CN(C2COC2)CCN1c1ccc(Nc2cc(-c3ccnc(-n4ccn5c(cc6ccccc65)c4=O)c3CO)nn(C)c2=O)nc1` [Compound 76] are 7.22 and 6.91.
For `CCCn1cc(Nc2cc(-c3ccnc(-n4ccn5c6c(cc5c4=O)CC(C)(C)C6)c3CO)cn(C)c2=O)cn1` [Compound 174], in that order: 7.36 and 8.70.
As to `COCCN1CCn2nc(Nc3cc(-c4ccnc(-n5ncn6c7c(cc6c5=O)CC(C)(C)C7)c4CO)cn(C)c3=O)cc2C1C` (racemic) [Compound 110, (RS)-2-(3′-(hydroxymethyl)-5-((5-(2-methoxyethyl)-4-methyl-4,5,6,7-tetrahydropyrazolo[1,5-a]pyrazin-2-yl)amido)-1-methyl-6-oxo-1,6-dihydro-[3,4′-bispyridin]-2′-yl)-7,7-dimethyl-7,8-dihydro-2H-cyclopenta[4,5]pyrrolo[1,2-d][1,2,4]triazin-1(6H)-one], the pIC50 in assay [1] and in assay [2] was 8.70 each time.
With `Cc1ccc(Nc2cc(-c3ccnc(-n4ccn5c6c(cc5c4=O)CC(C)(C)C6)c3CO)cn(C)c2=O)nn1` [Compound 85], the figures for the pIC50 in assay [1] and in assay [2] were 8.70 and 7.96, respectively.
The corresponding values for `C[C@H]1CN(C2COC2)CCN1c1ccc(Nc2cc(-c3ccnc(-n4ncn5c6c(cc5c4=O)CCCCC6)c3CO)cn(C)c2=O)nc1` [Compound 150] are 7.92 and 7.92.
With `CC(C)n1cc(Nc2nc(-c3ccnc(-n4ccn5c6c(cc5c4=O)CC(C)(C)C6)c3CO)cn(C)c2=O)nn1` [Compound 4], the pIC50 in assay [1] was 6.32; in assay [2], 6.12.
Take `COCCN1CCn2nc(Nc3cc(-c4ccnc(-n5ccn6c7c(cc6c5=O)CC(C)(C)C7)c4CO)cn(C)c3=O)cc2C1C` (stereo not shown) [Compound 111]: the figures for the pIC50 in assay [1] and in assay [2] were 8.70 and 8.10, respectively.
The corresponding values for `Cn1cc(-c2ccnc(-n3ccn4c5c(cc4c3=O)CC(C)(C)C5)c2CO)cc(Nc2ccc(N[C@@H]3CC[C@@H](CO)OC3)cn2)c1=O` [Compound 46] are 8.30 and 8.10.
The corresponding values for `C[C@H]1CN(C2COC2)CCN1c1ccc(Nc2cc(-c3ccnc(-n4ccn5c6c(cc5c4=O)CC(C)(C)[C@@H]6O)c3CO)cn(C)c2=O)nc1` [Compound 198] are 7.92 and 8.40.
In the case of `CCn1cc(-c2ccnc(-n3ccn4c5c(cc4c3=O)CC(C)(C)C5)c2CO)cc(Nc2ccc(N3C[C@@H](C)N(C4COC4)C[C@@H]3C)cn2)c1=O` [Compound 215], the negative-log IC50 (pIC50) was 7.29 in assay [1] and 7.51 in assay [2].
`C[C@@H]1CN(c2ccc(Nc3cc(-c4ccnc(-n5ccn6c7c(c(F)c6c5=O)CCCC7)c4CO)cn(C)c3=O)nc2)[C@@H](C)CN1C1COC1` [Compound 218]: the pIC50 in assay [1] was 7.92; in assay [2], 8.22.
As for `Cn1cc(-c2ccnc(-n3ccn4c5c(c(F)c4c3=O)CCCC5)c2CO)cc(Nc2cc3n(n2)CCOC3)c1=O` [Compound 176], the values for the pIC50 in assay [1] and in assay [2] were 7.80 and 8.52, respectively.
The corresponding values for `Cn1cc(Nc2cc(-c3ccnc(-n4ccn5c6c(cc5c4=O)CC(C)(C)C6)c3CO)cn(C)c2=O)cn1` [Compound 86] are 8.22 and 7.80.
The corresponding values for `C[C@H]1CN(C(CO)CO)CCN1c1ccc(Nc2cc(-c3ccnc(-n4ccn5c6c(cc5c4=O)CC(C)(C)C6)c3CO)cn(C)c2=O)nc1` [Compound 185] are 7.89 and 7.89.
The corresponding values for `COc1ccc(Nc2cc(-c3ccnc(-n4ccn5c6c(cc5c4=O)CC(C)(C)C6)c3CO)cn(C)c2=O)nn1` [Compound 169] are 7.52 and 7.22.
For `Cc1cc(Nc2cc(-c3ccnc(-n4ncn5c6c(cc5c4=O)CC(C)(C)C6)c3CO)cn(C)c2=O)no1` [Compound 192], the pIC50 was 7.80 in assay [1] and 8.05 in assay [2].
For `C[C@@H]1c2cc(Nc3cc(-c4ccnc(-n5ccn6c7c(cc6c5=O)CC(C)(C)C7)c4CO)cn(C)c3=O)nn2CCN1C1COC1` [Compound 137], in that order: 8.40 and 8.22.
For `CCn1cc(-c2ccnc(-n3ncn4c5c(cc4c3=O)CC(C)(C)C5)c2CO)cc(Nc2ccc(N3CCN(C4COC4)C[C@@H]3C)cn2)c1=O` [Compound 211], in that order: 7.70 and 7.77.

A word on the pIC50: it is the IC50 on a negative log10 scale, so that one unit is a factor of ten.

Source of the values: patent US11478474B2, “2-(3′-(hydroxymethyl)-1-methyl-5-((5-(2-methyl-4-(oxetan-3-yl)piperazin-1-yl)pyridin-2-yl)amino)-6-oxo-1,6-dihydro-[3,4′-bipyridin]-2′-yl)-7,7-dimethyl-7,8-dihydro-2H-cyclopenta[4,5]pyrrolo[1,2-a]pyrazin-1(6H)-one as a BTK inhibitor” (HUTCHISON MEDIPHARMA LIMITED, priority 2020, dated 2022).
